In ChEMBL document CHEMBL1240330, “Splicing factor SF3b as a target of the antitumor natural product pladienolide” (Nat Chem Biol, 2007):

What was measured:
[1] = target: Splicing factor 3B subunit 1 / PHD finger-like domain-containing protein 5A (Homo sapiens, UniProt O75533+Q7RTV0); assay: (§1) Inhibition of SAP130 in VEGF-stimulated human U251 cells by PLAP reporter gene assay; format: cell-based, U-251; conditions: u-251
[2] = target: T1, Splicing factor 3B subunit 3 (Homo sapiens) (UniProt Q15393); assay: Displacement of [3H]probe from SAP130 in human WiDr cell immunoprecipitate sample assessed as radioactive intensity at 10 uM after 1 hr by scintillation counting
T1 sequence (whole entry): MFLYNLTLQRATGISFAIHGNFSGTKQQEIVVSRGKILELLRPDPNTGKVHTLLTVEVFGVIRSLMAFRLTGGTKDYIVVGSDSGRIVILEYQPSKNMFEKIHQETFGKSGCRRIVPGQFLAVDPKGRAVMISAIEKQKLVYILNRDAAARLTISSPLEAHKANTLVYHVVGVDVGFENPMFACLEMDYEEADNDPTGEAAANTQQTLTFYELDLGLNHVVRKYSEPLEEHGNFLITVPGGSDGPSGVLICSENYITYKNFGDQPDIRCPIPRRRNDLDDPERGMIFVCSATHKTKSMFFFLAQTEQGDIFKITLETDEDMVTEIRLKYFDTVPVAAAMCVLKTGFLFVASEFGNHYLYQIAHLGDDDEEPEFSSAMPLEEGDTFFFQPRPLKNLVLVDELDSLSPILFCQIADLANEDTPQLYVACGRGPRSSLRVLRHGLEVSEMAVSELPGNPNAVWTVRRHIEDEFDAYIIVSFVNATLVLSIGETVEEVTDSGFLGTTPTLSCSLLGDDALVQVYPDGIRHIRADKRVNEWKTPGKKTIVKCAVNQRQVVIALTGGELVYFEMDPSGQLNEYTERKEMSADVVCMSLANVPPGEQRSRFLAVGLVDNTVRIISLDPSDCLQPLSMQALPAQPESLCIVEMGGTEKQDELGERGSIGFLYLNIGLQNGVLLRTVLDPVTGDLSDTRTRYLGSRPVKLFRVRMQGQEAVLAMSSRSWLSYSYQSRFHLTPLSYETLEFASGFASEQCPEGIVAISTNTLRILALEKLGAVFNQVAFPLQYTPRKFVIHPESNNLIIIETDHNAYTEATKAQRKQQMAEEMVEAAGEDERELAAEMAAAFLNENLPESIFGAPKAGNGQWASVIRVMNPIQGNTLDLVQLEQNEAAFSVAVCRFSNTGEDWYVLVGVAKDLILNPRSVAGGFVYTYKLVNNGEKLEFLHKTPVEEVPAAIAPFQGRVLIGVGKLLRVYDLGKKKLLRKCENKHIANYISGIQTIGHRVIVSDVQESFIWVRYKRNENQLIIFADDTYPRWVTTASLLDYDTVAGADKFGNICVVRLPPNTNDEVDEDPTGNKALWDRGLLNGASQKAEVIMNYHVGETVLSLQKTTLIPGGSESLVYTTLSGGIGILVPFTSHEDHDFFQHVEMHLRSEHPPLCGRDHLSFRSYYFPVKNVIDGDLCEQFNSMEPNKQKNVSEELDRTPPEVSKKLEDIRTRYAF

[3] = target: T2, Splicing factor 3B subunit 3 (Homo sapiens, UniProt Q15393); assay: as §1; format: cell-based, U-251
T2 sequence (Q15393 whole entry): T1 sequence (whole entry)

Sequence of Splicing factor 3B subunit 1 / PHD finger-like domain-containing protein 5A (O75533 whole entry, the tested form may be a part): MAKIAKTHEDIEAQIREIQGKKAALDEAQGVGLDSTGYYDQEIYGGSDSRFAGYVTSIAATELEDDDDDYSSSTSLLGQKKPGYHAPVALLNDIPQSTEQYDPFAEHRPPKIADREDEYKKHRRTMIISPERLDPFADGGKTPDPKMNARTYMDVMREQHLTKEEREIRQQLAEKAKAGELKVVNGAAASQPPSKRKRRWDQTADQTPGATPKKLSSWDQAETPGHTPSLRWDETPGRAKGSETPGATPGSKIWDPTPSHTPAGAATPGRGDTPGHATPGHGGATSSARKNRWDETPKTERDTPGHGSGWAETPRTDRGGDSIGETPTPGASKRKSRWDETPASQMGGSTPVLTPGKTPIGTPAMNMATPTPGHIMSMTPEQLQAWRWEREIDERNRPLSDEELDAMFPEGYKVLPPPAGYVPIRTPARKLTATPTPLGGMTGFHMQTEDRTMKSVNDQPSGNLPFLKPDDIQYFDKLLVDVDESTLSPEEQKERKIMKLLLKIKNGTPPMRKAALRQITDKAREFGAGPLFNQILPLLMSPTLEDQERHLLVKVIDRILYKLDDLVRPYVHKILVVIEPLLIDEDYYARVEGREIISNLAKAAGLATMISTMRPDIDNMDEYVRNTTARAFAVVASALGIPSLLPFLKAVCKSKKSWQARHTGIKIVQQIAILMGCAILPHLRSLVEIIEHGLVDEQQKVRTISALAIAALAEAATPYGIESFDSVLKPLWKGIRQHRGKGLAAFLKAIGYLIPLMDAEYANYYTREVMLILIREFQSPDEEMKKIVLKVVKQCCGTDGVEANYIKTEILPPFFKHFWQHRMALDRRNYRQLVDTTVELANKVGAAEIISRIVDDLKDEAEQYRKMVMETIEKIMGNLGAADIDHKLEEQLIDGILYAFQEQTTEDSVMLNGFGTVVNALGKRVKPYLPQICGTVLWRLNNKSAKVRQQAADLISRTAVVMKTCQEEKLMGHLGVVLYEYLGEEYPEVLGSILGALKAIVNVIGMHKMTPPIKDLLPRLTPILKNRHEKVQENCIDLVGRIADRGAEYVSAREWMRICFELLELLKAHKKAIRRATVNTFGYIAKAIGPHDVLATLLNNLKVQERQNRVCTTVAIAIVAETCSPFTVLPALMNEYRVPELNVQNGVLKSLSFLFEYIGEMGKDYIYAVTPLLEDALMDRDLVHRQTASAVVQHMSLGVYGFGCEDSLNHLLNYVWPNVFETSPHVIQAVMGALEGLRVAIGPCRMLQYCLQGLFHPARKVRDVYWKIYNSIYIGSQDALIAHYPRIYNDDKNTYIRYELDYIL
Sequence of Splicing factor 3B subunit 1 / PHD finger-like domain-containing protein 5A (Q7RTV0 2-110 limits assumed): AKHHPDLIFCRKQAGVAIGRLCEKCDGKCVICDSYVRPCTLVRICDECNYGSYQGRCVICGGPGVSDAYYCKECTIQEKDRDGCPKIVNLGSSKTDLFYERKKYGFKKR

| SMILES | IC50 [1] [nM] | Activity [2] [%] | IC50 [3] [nM] |
| --- | --- | --- | --- |
| CC(=O)N[C@@H](CSC(=O)[C@]1([C@@H](O)C(C)C)NC(=O)[C@H](C)[C@@H]1O)C(=O)O [LACTACYSTIN] | 3480 | < 50 |  |
| C=CC[C@@H]1/C=C(\C)C[C@H](C)C[C@H](OC)[C@H]2O[C@@](O)(C(=O)C(=O)N3CCCC[C@H]3C(=O)O[C@H](/C(C)=C/[C@@H]3CC[C@@H](O)[C@H](OC)C3)[C@H](C)[C@@H](O)CC1=O)[C@H](C)C[C@@H]2OC [TACROLIMUS ANHYDROUS] | 13.8 |  |  |
| CC(/C=C/C(=O)NO)=C\[C@@H](C)C(=O)c1ccc(N(C)C)cc1 [TRICHOSTATIN] |  |  | 611 |
